Like-named read-outs stand apart in the source and are kept apart here.
How the values were obtained:
E. coli 609 = assay: Antibiotic activity test, agar-plate dilution method; assay type: cell-based, Escherichia coli
Protocol: (§1) The MIC (μg/ml), the lowest concentration of antibiotic which inhibits growth of the test bacterial strain, was determined by the agar-plate dilution method. The crystalline compounds obtained in Example 1, 2, 4 and 5 of this invention were evaluated against various bacterial strains by determining the MIC of each compound with respect to each strain.

S. aureus 535 (MRSA) = assay: as above; assay type: cell-based, Staphylococcus aureus
Protocol: as §1

K. pneumoniae 846 = assay: as above; assay type: cell-based, Klebisella pneumoniae
Protocol: as §1

[1] = Stability test in desiccator at 60° C. in which silica gel was placed (HPLC remaining amount); assay type: physicochemical; details: desiccator at 60° C. with silica gel
Protocol: (§2) The crystalline compounds obtained in Example 1, 2, 4 and 5 were kept for about 2 months in a desiccator at 40° C. and 75% relative humidity and in a desiccator at 60° C. in which silica gel was placed, respectively. The non-crystalline powdered compound (lyophilized product) obtained according to the procedure described in U.S. Pat. No. 6,090,802 Example 72 and in Japanese Patent Application Publication No. Hei-11-071277, which is a reference sample, was kept under the same conditions described above. The remaining amount of the crystalline compounds and the non-crystalline powdered compound were determined after 7, 20, 21, 28, and 56 days by high pressure liquid chromatography on a L-Column ODS (4.6 mm Φ×150 mm, (trade mark) manufactured by Kagakuhinn kennsa kyoukai) eluting with 20 mM KH2PO4 (pH 7.0): CH3CN=96:4 at 1.0 ml/minute at 60° C. using an ultraviolet wave length of 300 nm. The remaining percentages of these compounds were calculated from the remaining amount of them and show in Tables 1-4.

Escherichia coli NIHJ = assay: Antibiotic activity test, agar-plate dilution method; assay type: cell-based
Protocol: as §1

[2] = system: Staphylococcus aureus 209P; assay: as above; assay type: cell-based
Protocol: as §1

[3] = system: Klebisella pneumoniae 806; assay: as above; assay type: cell-based
Protocol: as §1

Serratia marcescens 1184 = assay: as above; assay type: cell-based
Protocol: as §1

Enterobacter cloacae 963 = assay: as above; assay type: cell-based
Protocol: as §1

[4] = system: Pseudomonas aeruginosa 1001; assay: as above; assay type: cell-based
Protocol: as §1

[5] = Stability test in desiccator at 40° C. and 75% relative humidity (HPLC remaining amount); assay type: physicochemical
Protocol: as §2

SMILES | Antibiotic activity (MIC) (E. coli 609) | Antibiotic activity (MIC) (S. aureus 535 (MRSA)) | Antibiotic activity (MIC) (K. pneumoniae 846) | Remaining percentage of compound ([1]; After 21 days) | Remaining percentage of compound ([1]; After 56 days) | Antibiotic activity (MIC) (Escherichia coli NIHJ) | Antibiotic activity (MIC) [2] | Antibiotic activity (MIC) [3] | Antibiotic activity (MIC) (Serratia marcescens 1184) | Antibiotic activity (MIC) (Enterobacter cloacae 963) | Antibiotic activity (MIC) [4] | Remaining percentage of compound ([5]; After 20 days) | Remaining percentage of compound ([5]; After 56 days) | further results
CCO.C[C@@H](O)[C@H]1C(=O)N2C(C(=O)O)=C(S[C@H]3C[C@@H](C(=O)N4CC[C@H](NC(=O)CNC(=N)N)C4)N(C)C3)[C@H](C)[C@H]12.O=C(O)O [Example 1, (1R,5S,6S)-2-[(2S,4S)-2-[(3S)-3-(2-Guanidinoacetylamino)pyrrolidin-1-ylcarbonyl]-1-methylpyrrolidin-4-ylthio]-6-[(1R)-1-hydroxyethyl]-1-methyl-1-carbapen-2-em-3-carboxylic acid.1/2 Carbonate.1/2 Ethanol] | 0.02 µg/mL | 1.5 µg/mL | ≦0.01 μg/ml | 98.5% | 96.4% | ≦0.01 μg/ml | ≦0.01 μg/ml | ≦0.01 μg/ml | ≦0.01 μg/ml | 0.05 µg/mL | 0.2 µg/mL | 98.5% | 92.9% | 
CCO.C[C@@H](O)[C@H]1C(=O)N2C(C(=O)O)=C(S[C@H]3C[C@@H](C(=O)N4CC[C@H](NC(=O)CNC(=N)N)C4)N(C)C3)[C@H](C)[C@H]12.C[C@@H](O)[C@H]1C(=O)N2C(C(=O)O)=C(S[C@H]3C[C@@H](C(=O)N4CC[C@H](NC(=O)CNC(=N)N)C4)N(C)C3)[C@H](C)[C@H]12 [Example 2, (1R,5S,6S)-2-[(2S,4S)-2-[(3S)-3-(2-Guanidinoacetylamino)pyrrolidin-1-ylcarbonyl]-1-methylpyrrolidin-4-ylthio]-6-[(1R)-1-hydroxyethyl]-1-methyl-1-carbapen-2-em-3-carboxylic Acid.1/2 Ethanol] | ≦0.01 μg/ml | 1.5 µg/mL | ≦0.01 μg/ml | 100.1% | 96.8% | ≦0.01 μg/ml | ≦0.01 μg/ml | ≦0.01 μg/ml | ≦0.01 μg/ml | 0.05 µg/mL | 0.2 µg/mL | 95.8% | 87.3% | 
C[C@@H](O)[C@H]1C(=O)N2C(C(=O)O)=C(S[C@H]3C[C@@H](C(=O)N4CC[C@H](NC(=O)CNC(=N)N)C4)N(C)C3)[C@H](C)[C@H]12 [Example 4, (1R,5S,6S)-2-[(2S,4S)-2-[(3S)-3-(2-Guanidinoacetylamino)pyrrolidin-1-ylcarbonyl]-1-methylpyrrolidin-4-ylthio]-6-[(1R)-1-hydroxyethyl]-1-methyl-1-carbapen-2-em-3-carboxylic Acid] | 0.02 µg/mL | 1.5 µg/mL | ≦0.01 μg/ml | 100.4% | 100.9% | ≦0.01 μg/ml | ≦0.01 μg/ml | ≦0.01 μg/ml | ≦0.01 μg/ml | 0.05 µg/mL | 0.2 µg/mL | 99.4% | 94.3% | 
C[C@@H](O)[C@H]1C(=O)N2C(C(=O)O)=C(S[C@H]3C[C@@H](C(=O)N4CC[C@H](NC(=O)CNC(=N)N)C4)N(C)C3)[C@H](C)[C@H]12 [Example 5, (1R,5S,6S)-2-[(2S,4S)-2-[(3S)-3-(2-Guanidinoacetylamino)pyrrolidin-1-ylcarbonyl]-1-methylpyrrolidin-4-ylthio]-6-[(1R)-1-hydroxyethyl]-1-methyl-1-carbapen-2-em-3-carboxylate.1/4 Ethanol.3/2 Hydrate] |  |  |  |  |  |  |  |  |  |  |  |  |  | Antibiotic activity (MIC) (E. coli 609; Hydrate): ≦0.01 μg/ml; Remaining percentage of compound ([1]; After 7 days): 98.3%; Remaining percentage of compound ([1]; After 28 days): 97.0%; Remaining percentage of compound ([1]; After 56 days, Hydrate): 97.6%; Antibiotic activity (MIC) ([4]; Hydrate): 0.39 µg/mL; Remaining percentage of compound ([5]; After 7 days): 98.9%; Remaining percentage of compound ([5]; After 28 days): 94.6%; Remaining percentage of compound ([5]; After 56 days, Hydrate): 83.2%

Reference: patent US6924279B2, “Crystalline 1-methylcarbapenem derivatives” (Sankyo Company, Limited, priority 1999, dated 2005)
